Source: PMC11129975, “A first-in-human phase I study of TAS-117, an allosteric AKT inhibitor, in patients with advanced solid tumors” (Cancer Chemotherapy and Pharmacology, 2024)

Assay: Phase I safety: adverse events, adverse drug reactions, DLTs in patients with advanced solid tumors
Assay type: in vivo, human
Description: This was a phase I, open-label, non-randomized, dose-escalating first-in-human study to evaluate the safety, pharmacokinetics, antitumor activity, pharmacodynamics, and pharmacogenomics of TAS-117 in patients with advanced solid tumors. The study had three phases: a dose escalation phase (DEP), a regimen modification phase (RMP), and a safety assessment phase (SAP). The treatment cycle on each regimen lasted 21 days. The DEP used an accelerated titration and 3 + 3 design. TAS-117 was administered orally once daily (QD) on an empty stomach (1 h before or 2 h after a meal). Dosing was determined based on a 4-week repeated oral-dose toxicology study in monkeys (data on file, Taiho Pharmaceutical Co., Ltd.); the highest non-severely toxic dose was 1.2 mg/kg/day, which was converted to 3.84 mg/body/day, or 2.4 mg/m^2. Therefore, the starting dose was determined to be ≤ 2.4 mg/m^2. At dose level 1, TAS-117 was administered at 2 mg QD (Day − 2), and the dose was increased to 4 mg QD after 2 days (Day 1). The RMP was conducted according to a 3 + 3 design. During this phase, the dose regimen was changed from QD administration to intermittent dosing of daily TAS-117 with 4 days on/3 days off. TAS-117 was administered on an empty stomach. Dose-limiting toxicities (DLTs) were evaluated in Cycle 1 of the DEP and RMP. […] The RD and regimen for the SAP were determined based on the safety, pharmacokinetics, pharmacodynamics, and antitumor activity profile determined in the DEP and RMP. During the SAP, the safety and preliminary efficacy profiles of TAS-117 were assessed at the RD and recommended regimen. Three cohorts were included in this assessment. Cohort 1 included patients with endometrial cancer with a PIK3CA mutation; cohort 2 included patients with endometrial cancer with an AKT1 mutation, AKT1 amplification, or AKT2 amplification; and cohort 3 included patients with ovarian clear cell carcinoma.
The primary endpoints were the proportion of patients who experienced DLTs in Cycle 1 of the DEP and RMP and the incidence of adverse events (AEs) and adverse drug reactions (ADRs) in the SAP. AEs and ADRs were coded using the Medical Dictionary for Regulatory Activities (MedDRA; version 24.1) and graded according to the National Cancer Institute Common Terminology Criteria for Adverse Events (CTCAE; version 4.03). Secondary endpoints were pharmacokinetic findings, changes in the ratio of phosphorylated PRAS40 (pPRAS40)/total PRAS40 from baseline, efficacy, and pharmacogenomics findings.

In the case of C[C@]1(O)C[C@@](N)(c2ccc(-c3nc4n(c3-c3ccccc3)COc3ccncc3-4)cc2)C1 [TAS-117], the “Adverse drug reactions: Blood AP increased” value (Total N = 65, All grade) is reported as 7 (10.8) n (%), the “Adverse drug reactions: Decreased appetite” value (Total N = 65, All grade) is reported as 10 (15.4) n (%) and the “Adverse drug reactions: Diarrhea” value (Total N = 65, All grade) is reported as 8 (12.3) n (%). For the same compound, the “Adverse drug reactions: Dry skin” value (Total N = 65, All grade) was 8 (12.3) n (%), the “Adverse drug reactions: GGT increased” value (Total N = 65, All grade) was 8 (12.3) n (%) and the “Adverse drug reactions: GI disorders” value (Total N = 65, All grade) was 41 (63.1) n (%). For the same compound, the “Adverse drug reactions: General disorders and administration site conditions” value (Total N = 65, All grade) was 27 (41.5) n (%), the “Adverse drug reactions: Hyperglycemia” value (Total N = 65, All grade) was 30 (46.2) n (%) and the “Adverse drug reactions: Investigations” value (Total N = 65, All grade) was 39 (60.0) n (%). For the same compound, the “Adverse drug reactions: Metabolism and nutrition disorders” value (Total N = 65, All grade) was 36 (55.4) n (%), the “Adverse drug reactions: Nausea” value (Total N = 65, All grade) was 16 (24.6) n (%) and the “Adverse drug reactions: Neutrophil count decreased” value (Total N = 65, All grade) was 21 (32.3) n (%). The “Adverse drug reactions: Pruritus” value (Total N = 65, All grade) was 13 (20.0) n (%), the “Adverse drug reactions: Pyrexia” value (Total N = 65, All grade) was 17 (26.2) n (%) and the “Adverse drug reactions: Rash maculo-papular” value (Total N = 65, All grade) was 58 (89.2) n (%). The “Adverse drug reactions: Skin and SC tissue disorders” value (Total N = 65, All grade) was 61 (93.8) n (%), the “Adverse drug reactions: Stomatitis” value (Total N = 65, All grade) was 37 (56.9) n (%) and the “Adverse drug reactions: Vomiting” value (Total N = 65, All grade) was 7 (10.8) n (%). For the same compound, the “Adverse drug reactions: WBC count decreased” value (Total N = 65, All grade) was 25 (38.5) n (%), the “Adverse events: ALT increased” value (Total N = 65, All grade) was 12 (18.5) n (%) and the “Adverse events: AST increased” value (Total N = 65, All grade) was 13 (20.0) n (%). The “Adverse events: Any events” value (Total N = 65, All grade) was 64 (98.5) n (%), the “Adverse events: Blood AP increased” value (Total N = 65, All grade) was 8 (12.3) n (%) and the “Adverse events: Decreased appetite” value (Total N = 65, All grade) was 19 (29.2) n (%). For the same compound, the “Adverse events: Diarrhea” value (Total N = 65, All grade) was 15 (23.1) n (%), the “Adverse events: Dry skin” value (Total N = 65, All grade) was 11 (16.9) n (%) and the “Adverse events: GGT increased” value (Total N = 65, All grade) was 11 (16.9) n (%). The “Adverse events: GI disorders” value (Total N = 65, All grade) was 51 (78.5) n (%), the “Adverse events: General disorders and administration site conditions” value (Total N = 65, All grade) was 39 (60.0) n (%) and the “Adverse events: Hyperglycemia” value (Total N = 65, All grade) was 30 (46.2) n (%). The “Adverse events: Investigations” value (Total N = 65, All grade) was 42 (64.6) n (%), the “Adverse events: Metabolism and nutrition disorders” value (Total N = 65, All grade) was 44 (67.7) n (%) and the “Adverse events: Nausea” value (Total N = 65, All grade) was 21 (32.3) n (%). The “Adverse events: Neutrophil count decreased” value (Total N = 65, All grade) was 21 (32.3) n (%), the “Adverse events: Pruritus” value (Total N = 65, All grade) was 13 (20.0) n (%) and the “Adverse events: Pyrexia” value (Total N = 65, All grade) was 24 (36.9) n (%). The “Adverse events: Rash maculo-papular” value (Total N = 65, All grade) was 58 (89.2) n (%), the “Adverse events: Skin and SC tissue disorders” value (Total N = 65, All grade) was 61 (93.8) n (%) and the “Adverse events: Stomatitis” value (Total N = 65, All grade) was 38 (58.5) n (%). The “Adverse events: Vomiting” value (Total N = 65, All grade) was 13 (20.0) n (%), the “Adverse events: WBC count decreased” value (Total N = 65, All grade) was 25 (38.5) n (%) and the “Adverse drug reactions: ALT increased” value (Total N = 65, ≥ Grade 3) was 2 (3.1) n (%). For the same compound, the “Adverse drug reactions: AST increased” value (Total N = 65, ≥ Grade 3) was 0 (0.0) n (%), the “Adverse drug reactions: Any events” value (Total N = 65, ≥ Grade 3) was 39 (60.0) n (%) and the “Adverse drug reactions: Blood AP increased” value (Total N = 65, ≥ Grade 3) was 0 (0.0) n (%). For the same compound, the “Adverse drug reactions: Decreased appetite” value (Total N = 65, ≥ Grade 3) was 0 (0.0) n (%), the “Adverse drug reactions: Diarrhea” value (Total N = 65, ≥ Grade 3) was 0 (0.0) n (%) and the “Adverse drug reactions: Dry skin” value (Total N = 65, ≥ Grade 3) was 0 (0.0) n (%). The “Adverse drug reactions: GGT increased” value (Total N = 65, ≥ Grade 3) was 5 (7.7) n (%), the “Adverse drug reactions: GI disorders” value (Total N = 65, ≥ Grade 3) was 1 (1.5) n (%) and the “Adverse drug reactions: General disorders and administration site conditions” value (Total N = 65, ≥ Grade 3) was 0 (0.0) n (%). The “Adverse drug reactions: Hyperglycemia” value (Total N = 65, ≥ Grade 3) was 11 (16.9) n (%), the “Adverse drug reactions: Investigations” value (Total N = 65, ≥ Grade 3) was 20 (30.8) n (%) and the “Adverse drug reactions: Metabolism and nutrition disorders” value (Total N = 65, ≥ Grade 3) was 11 (16.9) n (%). The “Adverse drug reactions: Nausea” value (Total N = 65, ≥ Grade 3) was 0 (0.0) n (%), the “Adverse drug reactions: Neutrophil count decreased” value (Total N = 65, ≥ Grade 3) was 9 (13.8) n (%) and the “Adverse drug reactions: Pruritus” value (Total N = 65, ≥ Grade 3) was 0 (0.0) n (%). For the same compound, the “Adverse drug reactions: Pyrexia” value (Total N = 65, ≥ Grade 3) was 0 (0.0) n (%), the “Adverse drug reactions: Rash maculo-papular” value (Total N = 65, ≥ Grade 3) was 23 (35.4) n (%) and the “Adverse drug reactions: Skin and SC tissue disorders” value (Total N = 65, ≥ Grade 3) was 24 (36.9) n (%). The “Adverse drug reactions: Stomatitis” value (Total N = 65, ≥ Grade 3) was 1 (1.5) n (%), the “Adverse drug reactions: Vomiting” value (Total N = 65, ≥ Grade 3) was 0 (0.0) n (%) and the “Adverse drug reactions: WBC count decreased” value (Total N = 65, ≥ Grade 3) was 8 (12.3) n (%). The “Adverse events: ALT increased” value (Total N = 65, ≥ Grade 3) was 2 (3.1) n (%), the “Adverse events: AST increased” value (Total N = 65, ≥ Grade 3) was 1 (1.5) n (%) and the “Adverse events: Any events” value (Total N = 65, ≥ Grade 3) was 44 (67.7) n (%). The “Adverse events: Blood AP increased” value (Total N = 65, ≥ Grade 3) was 1 (1.5) n (%), the “Adverse events: Decreased appetite” value (Total N = 65, ≥ Grade 3) was 1 (1.5) n (%) and the “Adverse events: Diarrhea” value (Total N = 65, ≥ Grade 3) was 1 (1.5) n (%). The “Adverse events: Dry skin” value (Total N = 65, ≥ Grade 3) was 0 (0.0) n (%), the “Adverse events: GGT increased” value (Total N = 65, ≥ Grade 3) was 8 (12.3) n (%) and the “Adverse events: GI disorders” value (Total N = 65, ≥ Grade 3) was 4 (6.2) n (%). The “Adverse events: General disorders and administration site conditions” value (Total N = 65, ≥ Grade 3) was 0 (0.0) n (%), the “Adverse events: Hyperglycemia” value (Total N = 65, ≥ Grade 3) was 11 (16.9) n (%) and the “Adverse events: Investigations” value (Total N = 65, ≥ Grade 3) was 24 (36.9) n (%). For the same compound, the “Adverse events: Metabolism and nutrition disorders” value (Total N = 65, ≥ Grade 3) was 13 (20.0) n (%), the “Adverse events: Nausea” value (Total N = 65, ≥ Grade 3) was 0 (0.0) n (%) and the “Adverse events: Neutrophil count decreased” value (Total N = 65, ≥ Grade 3) was 9 (13.8) n (%). For the same compound, the “Adverse events: Pruritus” value (Total N = 65, ≥ Grade 3) was 0 (0.0) n (%), the “Adverse events: Pyrexia” value (Total N = 65, ≥ Grade 3) was 0 (0.0) n (%) and the “Adverse events: Rash maculo-papular” value (Total N = 65, ≥ Grade 3) was 23 (35.4) n (%). The “Adverse events: Skin and SC tissue disorders” value (Total N = 65, ≥ Grade 3) was 24 (36.9) n (%), the “Adverse events: Stomatitis” value (Total N = 65, ≥ Grade 3) was 1 (1.5) n (%) and the “Adverse events: Vomiting” value (Total N = 65, ≥ Grade 3) was 0 (0.0) n (%). The “Adverse events: WBC count decreased” value (Total N = 65, ≥ Grade 3) was 8 (12.3) n (%), the “Patients who developed AEs related to skin disorders” value (all treated patients) was 93.8% and the “Patients with maculopapular rash” value (all treated patients) was 89.2%. The “Patients who discontinued because of AEs” value (dose level 4 (24 mg intermittent administration)) was “four patients”, the “Recommended dose (RD)” value (intermittent dosing (4 days on/3 days off)) was 24 mg and the Tolerability (once daily up to 16 mg/day and intermittent dosing of 24 mg/day) was “well tolerated”. For the same compound, the “Maculopapular rash grade ≥ 3” value (printed as % of patients with this AE) was 35.4%.
